Assay results reported in ChEMBL document CHEMBL5030559, “Imaging Autotaxin In Vivo with 18F-Labeled Positron Emission Tomography Ligands” (J Med Chem, 2021).

Tests used:
[1] = molecular target: Autotaxin (Homo sapiens, UniProt Q13822); test: Inhibition of ATX lysoPLD (unknown origin) using 18:1 LPC as substrate assessed as reduction in choline release by HVA fluorescence based analysis
[2] = Drug uptake in iv dosed CD-1 mouse liver assessed as high radioactivity in liver measured up to 60 mins post injection by PET imaging analysis; type: ADME, organism-based; conditions: in vivo, 1 h
[3] = Drug uptake in iv dosed CD-1 mouse kidney assessed as high radioactivity in kidney measured up to 60 mins post injection by PET imaging analysis; type: ADME, organism-based; conditions: in vivo, 1 h
[4] = Drug uptake in iv dosed CD-1 mouse small intestine assessed as high radioactivity in small intestine measured up to 60 mins post injection by PET imaging analysis; type: ADME, organism-based; conditions: in vivo, 1 h
[5] = Drug uptake in liver of LPS- induced CD-1 mouse model assessed as increase in signal of tracer in inflammed liver by measuring AUC (30 to 60 mins) relative to control; type: ADME, tissue-based; conditions: in vivo, time 30-60 min
[6] = Drug uptake in liver of LPS- induced CD-1 mouse model assessed as increase in signal of tracer in liver measured after 30 mins by autoradiography analysis relative to control; type: ADME, tissue-based; conditions: in vivo, 0.5 h
[7] = Ex vivo biodistribution in bone of iv dosed CD-1 mouse assessed as accumulation of radioactivity in bone measured after 15 to 60 min by PET imaging analysis; type: ADME, organism-based, Bone element; conditions: time 15-60 min
[8] = Drug uptake in iv dosed CD-1 mouse bone assessed as accumulation of radioactivity in bone measured after 30 to 60 mins post injection by PET imaging analysis; type: ADME, organism-based, Bone element; conditions: in vivo, time 30-60 min
[9] = Drug uptake in iv dosed CD-1 mouse bone measured after 30 min by PET imaging analysis; type: ADME, organism-based, Bone element; conditions: in vivo, 0.5 h
[10] = Drug uptake in iv dosed CD-1 mouse brain measured up to 60 mins post injection by PET imaging analysis; type: ADME, organism-based; conditions: in vivo, 1 h
[11] = Drug uptake in iv dosed CD-1 mouse bone assessed as accumulation of radioactivity in bone measured after 60 mins post injection by PET imaging analysis; type: ADME, organism-based, Bone element; conditions: in vivo, 1 h
[12] = Drug uptake in iv dosed CD-1 mouse bone assessed as accumulation of radioactivity in bone measured after 30 mins post injection by PET imaging analysis; type: ADME, organism-based, Bone element; conditions: in vivo, 0.5 h

Question: Which Ki [1] does the source give for `CCc1nc2ccc(N3CCN(CC(=O)N4CC(O)C4)CC3)cn2c1N(C)c1nc(-c2ccc(F)cc2)c(C#N)s1` here?
Answer: Its Ki is 30 nM.

Question: For `[2H]C([2H])([18F])C([2H])([2H])N1CCN(C(=O)CN2CCN(c3ccc4nc(CC)c(N(C)c5nc(-c6ccc(F)cc6)c(C#N)s5)n4c3)CC2)CC1`, which Drug uptake [2] is on record?
Answer: Its Drug uptake is “Active”.

Question: And the Drug uptake [3]?
Answer: Its Drug uptake is “Active”.

Question: And the Drug uptake [4]?
Answer: The Drug uptake was “Active”.

Question: And the Drug uptake [5]?
Answer: The Drug uptake was 84%.

Question: And the Drug uptake [6]?
Answer: Its Drug uptake is 92%.

Question: And the Drug uptake [7]?
Answer: The Drug uptake was “Not Active”.

Question: For `CCc1nc2ccc(N3CCN(CC(=O)N4CCC(F)CC4)CC3)cn2c1N(C)c1nc(-c2ccc(F)cc2)c(C#N)s1`, which Ki [1] is on record?
Answer: Its Ki is 15 nM.

Question: Which Drug uptake [8] does the source give for `CCc1nc2ccc(N3CCN(CC(=O)N4CCC([18F])CC4)CC3)cn2c1N(C)c1nc(-c2ccc(F)cc2)c(C#N)s1` here?
Answer: Its Drug uptake is 10 % ID/g.

Question: Which Ki [1] does the source give for `CCc1nc2ccc(N3CCN(CC(=O)N4CC[C@H](F)C4)CC3)cn2c1N(C)c1nc(-c2ccc(F)cc2)c(C#N)s1` here?
Answer: Its Ki is 32 nM.

Question: Which Ki [1] does the source give for `CCc1nc2ccc(N3CCN(CC(=O)N4CCC(F)C4)CC3)cn2c1N(C)c1nc(-c2ccc(F)cc2)c(C#N)s1` (stereo not drawn) here?
Answer: Its Ki is 15 nM.

Question: For `CCc1nc2ccc(N3CCN(CC(=O)N4CC(CF)C4)CC3)cn2c1N(C)c1nc(-c2ccc(F)cc2)c(C#N)s1`, which Ki [1] is on record?
Answer: The Ki was 14 nM.

Question: For `CCc1nc2ccc(N3CCN(CC(=O)N4CCN(CCF)CC4)CC3)cn2c1N(C)c1nc(-c2ccc(F)cc2)c(C#N)s1`, which Ki [1] is on record?
Answer: The Ki was 13 nM.

Question: Which Drug uptake [9] does the source give for `CCc1nc2ccc(N3CCN(CC(=O)N4CCC(C[18F])C4)CC3)cn2c1N(C)c1nc(-c2ccc(F)cc2)c(C#N)s1` (stereo not drawn) here?
Answer: Its Drug uptake is “Active”.

Question: What about the Drug uptake [2] of the same compound?
Answer: The Drug uptake was “Active”.

Question: What about the Drug uptake [3] of the same compound?
Answer: Its Drug uptake is “Active”.

Question: What about the Drug uptake [4] of the same compound?
Answer: Its Drug uptake is “Active”.

Question: And the Drug uptake [10]?
Answer: Its Drug uptake is “Not Active”.

Question: And the Drug uptake [7]?
Answer: Its Drug uptake is “Active”.

Question: Which Ki [1] does the source give for `CCc1nc2ccc(N3CCN(CC(=O)N4CC(F)C4)CC3)cn2c1N(C)c1nc(-c2ccc(F)cc2)c(C#N)s1` here?
Answer: Its Ki is 41 nM.

Question: What does the source list for `CCc1nc2ccc(N3CCN(CC(=O)N4CCN(CC[18F])CC4)CC3)cn2c1N(C)c1nc(-c2ccc(F)cc2)c(C#N)s1`?
Answer: Drug uptake [11]: 6.4 % ID/g; Drug uptake [12]: 6.6 % ID/g

Question: With `CCc1nc2ccc(N3CCN(CC(=O)N4CC(OCCF)C4)CC3)cn2c1N(C)c1nc(-c2ccc(F)cc2)c(C#N)s1` as the compound, how does the Ki [1] read?
Answer: Its Ki is 17 nM.

Question: For `CCc1nc2ccc(N3CCN(CC(=O)N4CCCC(F)C4)CC3)cn2c1N(C)c1nc(-c2ccc(F)cc2)c(C#N)s1` (stereo not drawn), which Ki [1] is on record?
Answer: Its Ki is 15 nM.

Question: With `CCc1nc2ccc(N3CCN(CC(=O)N4CC[C@@H](F)C4)CC3)cn2c1N(C)c1nc(-c2ccc(F)cc2)c(C#N)s1` as the compound, how does the Ki [1] read?
Answer: Its Ki is 14 nM.

Question: Which Ki [1] does the source give for `CCc1nc2ccc(N3CCN(CC(=O)N4CCC(CF)C4)CC3)cn2c1N(C)c1nc(-c2ccc(F)cc2)c(C#N)s1` (stereo not drawn) here?
Answer: The Ki was 7 nM.

Question: Which Drug uptake [8] does the source give for `CCc1nc2ccc(N3CCN(CC(=O)N4CCC([18F])C4)CC3)cn2c1N(C)c1nc(-c2ccc(F)cc2)c(C#N)s1` (stereo not drawn) here?
Answer: The Drug uptake was 10 % ID/g.

Question: With `[2H]C([2H])(F)C([2H])([2H])N1CCN(C(=O)CN2CCN(c3ccc4nc(CC)c(N(C)c5nc(-c6ccc(F)cc6)c(C#N)s5)n4c3)CC2)CC1` as the compound, how does the Ki [1] read?
Answer: Its Ki is 19 nM.
